This passage reports ring closure, isolated yield results from article PMC11023033.

Structures are written as SMILES.

This series in a line: CuAAC: 1,7-diethynyl PDI 8 + bis-azide, [1+1] macrocyclisation; Cu(MeCN)4PF6 0.4 eq with TBTA 0.4 eq (THPTA for 2a), N2, rt. Particulars: the molecule shown is the open-chain precursor, CH2Cl2, 0.22 mM, 25.0 °C.

As to `C#Cc1cc2c3c(ccc4c5c(-c6cn(CCCCOc7ccc(OCCCCN=[N+]=[N-])cc7)nn6)cc6c7c(ccc(c1c34)c75)C(=O)N(c1c(C(C)C)cccc1C(C)C)C6=O)C(=O)N(c1c(C(C)C)cccc1C(C)C)C2=O` [1a (hydroquinone, n=4)], the ring closure, isolated yield (26-membered ring, 96.0 h) is 24%. Take `C#Cc1cc2c3c(ccc4c5c(-c6cn(CCCCOc7ccc8ccccc8c7-c7c(OCCCCN=[N+]=[N-])ccc8ccccc78)nn6)cc6c7c(ccc(c1c34)c75)C(=O)N(c1c(C(C)C)cccc1C(C)C)C6=O)C(=O)N(c1c(C(C)C)cccc1C(C)C)C2=O` [2a (P-BINOL, n=4; PM 2% + PP 2%, dr 1:1)]: the ring closure, isolated yield (26-membered ring, 144.0 h) was 4%. For `C#Cc1cc2c3c(ccc4c5c(-c6cn(CCCCCCOc7ccc8ccccc8c7-c7c(OCCCCCCN=[N+]=[N-])ccc8ccccc78)nn6)cc6c7c(ccc(c1c34)c75)C(=O)N(c1c(C(C)C)cccc1C(C)C)C6=O)C(=O)N(c1c(C(C)C)cccc1C(C)C)C2=O`, the ring closure, isolated yield (30-membered ring, 96.0 h) is 53%.

In the case of `C#Cc1cc2c3c(ccc4c5c(-c6cn(CCCCCCCCOc7ccc8ccccc8c7-c7c(OCCCCCCCCN=[N+]=[N-])ccc8ccccc78)nn6)cc6c7c(ccc(c1c34)c75)C(=O)N(c1c(C(C)C)cccc1C(C)C)C6=O)C(=O)N(c1c(C(C)C)cccc1C(C)C)C2=O`, the ring closure, isolated yield (34-membered ring, 96.0 h) amounted to 33%. `C#Cc1cc2c3c(ccc4c5c(-c6cn(CCCCCCOc7ccc(OCCCCCCN=[N+]=[N-])cc7)nn6)cc6c7c(ccc(c1c34)c75)C(=O)N(c1c(C(C)C)cccc1C(C)C)C6=O)C(=O)N(c1c(C(C)C)cccc1C(C)C)C2=O` [1b (hydroquinone, n=6)]: the ring closure, isolated yield (30-membered ring, 96.0 h) stood at 23%.
